# Test results published in patent publication US8084448B2, “Organic compounds” (Novartis AG, priority 2006, dated 2011).
# Where a name gives a salt, the structure may show the parent alone.
row,Compound,melting point [°C]
1,"O=C1CN(c2ccc(-c3ccoc3)cc2O)S(=O)(=O)N1 (as salt: potassium) [Example 272, 5-(4-Furan-3-yl-2-hydroxyphenyl)-1,1-dioxo-1,2,5-thiadiazolidin-3-one]",230 to 235
2,"O=C1CN(c2ccc(OCCc3ccccc3)cc2O)S(=O)(=O)N1 [Example 55, 5-(2-Hydroxy-4-phenethyloxyphenyl)-1,1-dioxo-1,2,5-thiadiazolidin-3-one]",65 to 70
3,"COC(=O)c1c(O)cccc1OCCCCNC(=O)CCc1ccc(N2CC(=O)NS2(=O)=O)c(O)c1 [Example 110, 2-Hydroxy-6-(4-{3-[3-hydroxy-4-(1,1,4-trioxo-1,2,5-thiadiazolidin-2-yl)-phenyl]-propionylamino}-butoxy)-benzoic Acid Methyl Ester]",85 to 90
4,"O=C(O)COc1ccc(N2CC(=O)NS2(=O)=O)c(O)c1 [Example 296, [3-Hydroxy-4-(1,1,4-trioxo-1,2,5-thiadiazolidin-2-yl)-phenoxy]-acetic Acid]",185 to 188
5,"O=C1CN(c2ccc(S(=O)(=O)c3ccccc3)cc2O)S(=O)(=O)N1 [Example 318, 5-(4-Benzenesulfonyl-2-hydroxyphenyl)-1,1-dioxo-1,2,5-thiadiazolidin-3-one]",126 to 180
